# ChEMBL document CHEMBL3885861, “Open TG-GATES”
# Organism: Rattus norvegicus
# Experiment: Open TG-GATES - Regimen: Daily Repeat
# Format: toxicity, organism-based, Sprague-Dawley
# Set-up: regimen Daily Repeat, gender Male, age 6 weeks
# Conditions: in vivo, po, 20 mg/kg, […], route gavage, dose level High; for KIDNEY_L / KIDNEY_R / KIDNEY_TOTAL: tissue Kidney; for LIVER: tissue Liver; for ALP / ALT / AST / BUN / CRE / Ca / Cl / DBIL / GLC / IP / K / LDH / Na / PL / RALB / TBIL / TC / TG / TP / gamma-GTP: tissue Plasma
compound,measurement,setting,value
OCCN1CCN(CCCN2c3ccccc3Sc3ccc(C(F)(F)F)cc32)CC1 [FLUPHENAZINE],MCH,"tissue Blood, time 28 day",19.4 pg
same,MCHC,"tissue Blood, time 28 day",33.7%
same,MCV,"tissue Blood, time 28 day",57.7 fL
same,Mono,"tissue Blood, time 28 day",4%
same,Neu,"tissue Blood, time 28 day",11%
same,PT,"tissue Blood, time 28 day",12.3 s
same,Plat,"tissue Blood, time 28 day",73.1 x10_4/uL
same,RBC,"tissue Blood, time 28 day",804 x10_4/ul
same,Ret,"tissue Blood, time 28 day",2.5%
same,WBC,"tissue Blood, time 28 day",157 x10_2/uL
same,KIDNEY_L,time 7 day,0.9 g
same,KIDNEY_R,time 7 day,0.9 g
same,KIDNEY_TOTAL,time 7 day,1.8 g
same,KIDNEY_L,time 14 day,1 g
same,KIDNEY_R,time 14 day,1 g
same,KIDNEY_TOTAL,time 14 day,2.1 g
same,KIDNEY_L,time 28 day,1.1 g
same,KIDNEY_R,time 28 day,1.2 g
same,KIDNEY_TOTAL,time 28 day,2.3 g
same,LIVER,time 7 day,9 g
same,LIVER,time 14 day,11.9 g
same,LIVER,time 28 day,11.9 g
same,ALP,time 7 day,653.8 IU/L
same,ALT,time 7 day,44.4 IU/L
same,AST,time 7 day,79.6 IU/L
same,BUN,time 7 day,28.8 mg/dL
same,CRE,time 7 day,0.5 mg/dL
same,Ca,time 7 day,10.3 mg/dL
same,Cl,time 7 day,105.4 meq/L
same,DBIL,time 7 day,0.01 mg/dL
same,GLC,time 7 day,158.2 mg/dL
same,IP,time 7 day,7 mg/dL
same,K,time 7 day,4.4 meq/L
same,LDH,time 7 day,195.8 IU/L
same,Na,time 7 day,140.4 meq/L
same,PL,time 7 day,184.6 mg/dL
same,RALB,time 7 day,4.2 g/dL
same,TBIL,time 7 day,0.2 mg/dL
same,TC,time 7 day,101.2 mg/dL
same,TG,time 7 day,98.6 mg/dL
same,TP,time 7 day,6.2 g/dL
same,gamma-GTP,time 7 day,1 IU/L
same,ALP,time 14 day,872 IU/L
same,ALT,time 14 day,44.8 IU/L
same,AST,time 14 day,81.5 IU/L
same,BUN,time 14 day,19.8 mg/dL
same,CRE,time 14 day,0.6 mg/dL
same,Ca,time 14 day,10.8 mg/dL
same,Cl,time 14 day,103.2 meq/L
same,DBIL,time 14 day,0.0025 mg/dL
same,GLC,time 14 day,182.8 mg/dL
same,IP,time 14 day,8.7 mg/dL
same,K,time 14 day,4.2 meq/L
same,LDH,time 14 day,148 IU/L
same,Na,time 14 day,137.2 meq/L
same,PL,time 14 day,141 mg/dL
same,RALB,time 14 day,4.2 g/dL
same,TBIL,time 14 day,0.2 mg/dL
same,TC,time 14 day,66.5 mg/dL
same,TG,time 14 day,86.8 mg/dL
same,TP,time 14 day,6.2 g/dL
same,gamma-GTP,time 14 day,2 IU/L
same,ALP,time 28 day,676.6 IU/L
same,ALT,time 28 day,31.6 IU/L
same,AST,time 28 day,80.2 IU/L
same,BUN,time 28 day,24.2 mg/dL
same,CRE,time 28 day,0.7 mg/dL
same,Ca,time 28 day,10.4 mg/dL
same,Cl,time 28 day,111.2 meq/L
same,DBIL,time 28 day,0.022 mg/dL
same,GLC,time 28 day,170.8 mg/dL
same,IP,time 28 day,6.2 mg/dL
same,K,time 28 day,4.4 meq/L
same,LDH,time 28 day,145.6 IU/L
same,Na,time 28 day,142 meq/L
same,PL,time 28 day,114.4 mg/dL
same,RALB,time 28 day,4.2 g/dL
same,TBIL,time 28 day,0.3 mg/dL
same,TC,time 28 day,57.8 mg/dL
same,TG,time 28 day,35.4 mg/dL
same,TP,time 28 day,6.4 g/dL
same,gamma-GTP,time 28 day,1.4 IU/L
